The values that follow come from a melting point compilation (Tetko et al.).

As a reminder, the melting point is the temperature, or range, at which the solid turns liquid. Take `CC(C)CCOc1ccc(C2(C)NC(=O)NC2=O)cc1` (stereo not drawn): the melting point was 110 to 112 °C.

For the compound `O=S1(=O)CC(S(=O)(=O)Cl)c2ccccc21` (stereo not drawn), the melting point was in the range of 144 to 146 °C. To `Nc1ccc(Cl)c(S(=O)(=O)Nc2cccc(Cl)c2)c1` belongs 158 to 160 °C. To `Cc1cc(CO)c2ccccc2n1` belongs 144 to 146 °C; to `CS(=O)c1cccc(N)c1` (stereo not drawn), 110 to 112 °C.

On to `CC(C)=CCOc1cccc(C(=O)O)c1`, for which the melting point lay in the range of 86 to 88 °C. In the case of `CC(=O)c1cc(C#N)c(SCC(=O)O)nc1C` it was 187 to 189 °C; in that of `Nc1nc(C(F)(F)F)cs1`, 66 to 68 °C. Regarding `O=C(CCl)NC1CCCCCCC1`, the melting point was in the range of 82 to 84 °C. In the case of `Nc1ncc(Cc2ccccc2F)s1` it was 97 to 99 °C; in that of `NC(=O)c1ccc(-c2csc(N)n2)cc1`, 250 to 252 °C; in that of `Oc1nc(-c2ccc(Cl)cc2)cs1`, 218 to 220 °C. `Cc1cccnc1NC1CCCCC1` yielded a melting point of 81 to 83 °C. To `Cc1cnn(Cc2cc(C(=O)O)no2)c1` belongs 163 to 165 °C; to `O=C(O)c1ccc2nccnc2c1`, 233 to 235 °C. In the case of `O=C1CCCC1Cc1ccccc1[N+](=O)[O-]` (stereo not drawn) it was 38 to 40 °C; in that of `NS(=O)(=O)c1ccc2c(c1)OCCO2`, 197 to 199 °C.

Compound `CCCc1nnn[nH]1` returned a melting point of 63 to 65 °C.

As for `O=C(CCSc1ccccn1)c1ccc(F)cc1`, the melting point was 60 to 62 °C. `O=C(O)CNC(=O)c1ccsc1` gave a melting point of 176 to 178 °C. To `NCc1ccc(N2CCSCC2)cc1` belongs 50 to 52 °C; to `COc1ccc2nc(C)cc(C(=O)O)c2c1`, 279 to 281 °C. Compound `N#Cc1ccc(NC(=O)CC2CCCC2)cc1` registered a melting point of 145 to 147 °C.

Compound `COc1cc(OC)c(NC(=O)OCC(F)(F)F)cc1Cl` yielded a melting point of 87 to 89 °C. `Nc1ccc(-n2nccn2)nc1` yielded a melting point of 82 to 84 °C. To `CCOC(=O)C(=O)CC(=O)c1cccnc1` belongs 66 to 68 °C; to `Cc1cc(N)n(-c2nc3ccccc3[nH]2)n1`, 203 to 205 °C; to `COc1ccc(-c2ccc(C=O)o2)c([N+](=O)[O-])c1`, 107 to 109 °C. Take `CNC(=O)c1ccc(Cl)c(N)c1`: the melting point fell in the range of 144 to 146 °C. To `O=C1CCc2cc(S(=O)(=O)Cl)ccc2N1` belongs 205 to 207 °C; to `O=C(O)CCC1Cc2ccccc2NC1=O` (stereo not drawn), 174 to 176 °C. In the case of `O=C1Cc2cc3c(cc2CCN1)OCCO3` it was 226 to 228 °C; in that of `ON=C1CCN(Cc2ccccc2)CC1`, 126 to 128 °C; in that of `COC(=O)c1ccccc1S(=O)(=O)Nc1ccccc1Cl`, 97 to 99 °C. For the compound `CC(=O)c1ccc(N2CCOCC2)c(F)c1`, the melting point was 84 to 86 °C. In the case of `N#Cc1cnc(C(=O)O)c(Cl)c1` it was 149 to 151 °C. In the case of `O=C(O)C1CCN(c2cnccn2)CC1` it was 149 to 151 °C; in that of `CCN1CCCC1CN1CC(C(=O)O)CC1=O` (stereo not drawn), 166 to 168 °C; in that of `CN1CCN(C(=O)C2CCN(C(=O)OC(C)(C)C)CC2)CC1`, 95 to 97 °C. To `Cc1ccc(NCCC(=O)O)nc1` belongs 201 to 203 °C; to `Sc1ncc(-c2ccc(Cl)cc2)n1-c1ccccc1`, 283 to 285 °C; to `C#Cc1cccc(NCC(=O)NC)c1`, 127 to 129 °C.

Consider `O=C(O)/C=C/c1cn(-c2ccccc2)nc1-c1ccc(Cl)s1`, for which the melting point is 200 to 202 °C. To `CC(=O)CC(=O)Nc1cccc(C)c1` belongs 57 to 59 °C; to `CN(C)C(=O)c1cc(S(=O)(=O)Cl)cn1C`, 105 to 107 °C; to `COc1cc(C(=O)O)cc(NC(C)=O)c1OC`, 229 to 231 °C. In turn, `O=S(=O)(Cl)c1ccc(-n2cnnn2)cc1` came in with a melting point of 179 to 181 °C.

Consider `Oc1ncnc2c(F)cc(Br)cc12`, for which the melting point was in the range of 299 to 301 °C. `OCc1cc(F)cc(CO)c1O` gave a melting point of 119 to 121 °C.

`COc1ncccc1NC(=O)OCC(F)(F)F` yielded a melting point of 44 to 46 °C. In the case of `O=C(O)CCc1c(-c2ccc(F)cc2)[nH]c2ccc(F)cc12` it was 131 to 135 °C; in that of `N#Cc1ccnc(S)c1`, 227 to 229 °C; in that of `CS(=O)(=O)c1ccc(CNC(=O)CCl)cc1`, 142 to 144 °C. In the case of `OC1CNc2c(ccc3ccccc23)C1` (stereo not drawn) it was 144 to 146 °C.

Take `O=C(O)c1[nH]nc(C2CC2)c1Cl`: the melting point was 231 to 233 °C.

In turn, `Cn1c(S)nnc1C1CCC1` showed a melting point of 124 to 126 °C. To `O=C(O)c1cccnc1SC(F)(F)F` belongs 162 to 164 °C; to `O=C(O)C1CCCN(C(=O)C2Cc3cc(Cl)ccc3O2)C1` (stereo not drawn), 159 to 161 °C; to `COC(=O)c1ccsc1N1CCC(N)C1=O` (stereo not drawn), 88 to 90 °C.

The compound `O=C(O)c1ccc(NS(=O)(=O)c2ccccc2)cc1` returned a melting point of 209 to 211 °C. Turning to `O=C(O)c1cccnc1Oc1ccc(F)cc1Br`, the melting point fell in the range of 189 to 191 °C. Take `Cc1cc(=O)[nH][nH]1`: the melting point was in the range of 223 to 225 °C.

Compound `CC(Cl)C(=O)Nc1ccc(N2CCCC2=O)cc1` (stereo not drawn) gave a melting point of 194 to 196 °C. To `O=C(O)c1cc(Cl)ccc1OC(F)F` belongs 109 to 111 °C. Compound `CNC(=O)c1ccc(C#N)cc1` yielded a melting point of 209 to 211 °C.

Compound `Nc1ccc(Cl)cc1-n1cccc1` registered a melting point of 92 to 94 °C. The compound `CC(=O)c1nc2ccccc2n1C` gave a melting point of 67 to 69 °C.

Take `O=C(O)COc1ccc2oc3ccccc3c2c1`: the melting point is 132 to 134 °C.

As for `CC(C)Cc1cc(C(=O)O)cc(O)n1`, the melting point was 235 to 237 °C. Take `O=C(O)c1cccc(F)c1I`: the melting point fell in the range of 148 to 150 °C.

On to `NC(=S)Cn1ccc(=O)[nH]c1=O`, for which the melting point is 256 to 258 °C. The compound `O=c1ccc(-c2cccc([N+](=O)[O-])c2)n[nH]1` had a melting point of 274 to 276 °C. In the case of `O=C(CN1CCNCC1)N1CCc2ccccc21` it was 139 to 141 °C; in that of `O=S(=O)(F)Cc1ccc(Cl)nc1`, 81 to 83 °C; in that of `O=C(O)C(=O)Cc1ccc(Cl)cc1`, 192 to 194 °C. In the case of `O=[N+]([O-])c1ccc(Cl)c(CCl)c1` it was 61 to 63 °C; in that of `NS(=O)(=O)c1c(Cl)cccc1Cl`, 176 to 178 °C; in that of `CCS(=O)(=O)CCn1ccc(N)n1`, 53 to 55 °C.

On to `Cc1c(C(=O)O)nnn1-c1cccc(Cl)c1`, for which the melting point is 179 to 181 °C.

For `N#CCC(=O)NC1CC1`, the melting point was 87 to 90 °C.

The compound `O=C(CCCCl)c1cc(F)ccc1O` returned a melting point of 66 to 68 °C. To `CC1Cc2ccccc2N1Cc1occc1C(=O)O` (stereo not drawn) belongs 186 to 188 °C. To `O=C(O)c1ccc(F)cc1-c1ccc(Cl)c(Cl)c1` belongs 179 to 181 °C; to `O=c1cc(CCl)nc2ccccn12`, 173 to 175 °C; to `CC(C)(C)OC(=O)N1CCc2[nH]c(=O)c(S(C)(=O)=O)cc2C1`, 229 to 231 °C. In the case of `OCc1nnnn1-c1ccccc1` it was 100 to 102 °C. As to `O=[N+]([O-])c1cc(Cl)ccc1NC1CC1`, the melting point fell in the range of 70 to 72 °C. `Nc1nc(-c2cccnc2)no1` showed a melting point of 266 to 268 °C.

`Nc1ccnc2ccncc12` showed a melting point of 254 to 256 °C. For `NC(c1ccc(Cl)cc1)c1ccc(C(F)(F)F)cc1` (stereo not drawn), the melting point fell in the range of 58 to 60 °C. In the case of `N#Cc1c(C(F)(F)F)cc(=O)[nH]c1SCC(=O)O` it was 200 to 204 °C. In the case of `O=C(O)c1ccc(Cl)c(S(=O)(=O)NC2CC2)c1` it was 221 to 224 °C; in that of `c1n[nH]cc1C1CCCCN1` (stereo not drawn), 114 to 116 °C. In the case of `Nc1c2c(nn1-c1ccccc1)CCC2` it was 180 to 182 °C. Compound `O=C(O)CCCOc1cccc2ccccc12` yielded a melting point of 116 to 118 °C.

The compound `COc1ccc(CNS(=O)(=O)c2c[nH]nc2N)cc1` came in with a melting point of 137 to 139 °C. On to `CCOCCCNC(N)=S`, for which the melting point was 84 to 86 °C.

`COC(=O)c1c(C2CC2)csc1N` returned a melting point of 72 to 74 °C. `CCOc1ccc(C(=O)C(C)Cl)cc1` (stereo not drawn) yielded a melting point of 62 to 64 °C. To `C(=C\c1ccncc1)/c1ccccc1` belongs 128 to 130 °C; to `CCC1(O)CCC(N)CC1` (stereo not drawn), 79 to 81 °C. To `Nc1cccc(-c2nccs2)c1` belongs 62 to 64 °C. In the case of `Cc1cc(Br)c(O)c(C(=O)O)c1` it was 201 to 203 °C; in that of `Cc1cc(C)cc(-n2[nH]c(-c3ccco3)cc2=N)c1`, 125 to 127 °C; in that of `NC(=O)c1cc(N)c(F)cc1F`, 169 to 171 °C. `Nc1ccc(OCc2cccnc2)cc1` showed a melting point of 79 to 81 °C. To `NC(=O)c1cn[nH]c1N` belongs 184 to 186 °C.

`COc1ccc(S(=O)(=O)Nc2ccccc2C(=O)O)cc1` came in with a melting point of 183 to 185 °C. In the case of `CC(C)(C)OC(=O)NC1CCC2CNCC21` (stereo not drawn) it was 109 to 111 °C.

`CC(=O)c1ccc(-n2ccnc2C)cc1` gave a melting point of 132 to 134 °C. Regarding `CCc1nc2ccccc2n1C1CCNCC1`, the melting point was 99 to 101 °C. For `CN(C)S(=O)(=O)c1ccc(NC(=O)CCl)cc1`, the melting point lay within 115 to 117 °C.

As to `CC(C)(C)OC(=O)NC(CN)C1CC1` (stereo not drawn), the melting point was 57 to 59 °C. Regarding `N#CCCCN1CCOCC1`, the melting point was in the range of 67 to 69 °C. In the case of `COc1ccc(C)cc1CC(=O)O` it was 131 to 133 °C.

`Cc1cccn2cc(COc3ccccc3C(=O)O)nc12` returned a melting point of 199 to 201 °C.

`Cn1ccnc1C(O)CCc1ccccc1` (stereo not drawn) gave a melting point of 101 to 103 °C. In the case of `Nc1cc(C(=O)O)ccc1OCC(F)(F)F` it was 176 to 178 °C. In the case of `O=C(O)c1cc(S(=O)(=O)Cl)c(F)c(Cl)c1F` it was 191 to 193 °C. In turn, `CNC(=O)CC1CCNCC1` came in with a melting point of 105 to 107 °C. To `COc1cc(CCl)ccc1OCc1cccc(C#N)c1` belongs 95 to 97 °C; to `O=C(Nc1cccc(Cl)c1)OCC(F)(F)F`, 35 to 37 °C; to `O=C(c1cccnc1O)N1CCCNCC1`, 157 to 159 °C.
